Measured values as given in patent US20150198584A1, “IDENTIFICATION OF […] STATES” ([…] AG, priority 2014, published 2015).
“Also recorded” adds a separate entry of the source.

What was measured:
[1] = test system: human peripheral blood monocytes; test: Kinetics of signal transduction responses to LPS in whole blood monocytes, flow cytometry of fixed and permeabilized cells; type: cell-based; settings: LPS in the presence of the inhibitor, compared to LPS alone
[2] = test system: K562 cells; test: Cell cycle measured by DNA content in K562 cells; type: cell-based, human; settings: 30 min exposure, listed as imatinib
Procedure: Cells were deposited onto dilutions of test compounds deposited into individual wells of 96 well plates, as indicated above. […] Following 15 min incubation (at 37° C.?), cells were pelleted by centrifugation, supernatant removed, and the cells were suspended by vibrating the plate.
Cell were permeabilized by adding 150 μl cold absolute methanol, followed by incubation at 4° C. for 15 minutes. Permeabilized cells were centrifuged, supernatant removed, and cells were washed three times with cold (4° C.) PBS containing 4% FBS. Following the final wash, cells were centrifuged, the supernatant was removed, and cells were re-suspended in an antibody cocktail (total volume 20 μl) appropriate for that experiment.

[3] = test system: HL-60 cells; test: Mitochondrial membrane potential (MMP) with JC-9, red and green fluorescence, flow cytometry; type: cell-based, human
Procedure: Cells were deposited into 384 well plates (1×10^6 cells in 40 μl tissue culture media) and serial dilutions of test compounds (or vehicle in the case of controls) were deposited in individual wells using standard robotic techniques. Compound deposition and dilution was performed by BIOMEK FX (5 or 10 step dilutions from 100 to 0.005 μM). Dilutions were prepared from stock solutions of compounds dissolved initially in 100% DMSO. Final volume deposited into each well is 2 μl of each compound dilution (compounds are in a final concentration of 1% DMSO). After incubation in a tissue culture incubator (5% CO2 at 37° C.) for varying periods of time (typically 4 hours), plates were centrifuged at room temperature, followed by removal of 20 μl supernatant fluid, After vibration of the plate to re-suspend cells, a dye mix (Plate in Monobromobimane, CALCEIN AM, MITOSOX™ and SYTOSOX™ RED; plate 1b VYBRANVIOLET™ Live Cell Cycle dye, JC-9, and SYTOSOX™ RED) was added in a total volume of 20 μl, followed by an additional mixing step. Plates were returned to the tissue culture incubator (5% CO2 at 37° C.) for an additional 15 min (plate 1a) or 30 min (plate 1b), followed by immediate analysis using the […]-CYAN™.
(§1) Each well of the 384 wellplate was sampled with a 6 second sip time, plus 1 second delay between wells, resulting in a total read time for each plate of approximately 45 minutes. Data was acquired using a CYAN™ flow cytometer, with the […]™ software used to compile files for each well on an individual plate using an FCS format. Data for each plate was subsequently analyzed for several quality assurance parameters (total number of events per well, numbers of events associated with morphologically normal events, number of dead cells), as described below.
Measurements identical to those described in Example 2 above were made using a second combination of dyes:
(2) JC-9 to measure mitochondrial membrane potential (MMP); and
The measurement of mitochondrial membrane potential (MMP) with JC-9 was performed with two independent fluorescence channels (green and red fluorescence signals), as changes in MMP cause aggregation of the dye, with different fluorescence emission by the aggregated versus non-aggregated dye molecules. […] At higher valinomycin concentrations, red fluorescence […]. A unique aspect of this assay is that it correlates changes in MMP (JC-9) and cell death (SYTOXRED™) with the phases of the cell cycle (G1, S, and G2M).

[4] = test system: HL-60 cell line; test: Cell physiology assay plate 1a (MBBR, CALCEIN AM, MITOSOX RED, SYTOXRED, light scatter) by flow cytometry; type: cell-based, human
Procedure: Cells were deposited into 384 well plates (1×10^6 cells in 40 μl tissue culture media) and serial dilutions of test compounds (or vehicle in the case of controls) were deposited in individual wells using standard robotic techniques. Compound deposition and dilution was performed by BIOMEK FX (5 or 10 step dilutions from 100 to 0.005 μM). Dilutions were prepared from stock solutions of compounds dissolved initially in 100% DMSO. Final volume deposited into each well is 2 μl of each compound dilution (compounds are in a final concentration of 1% DMSO). After incubation in a tissue culture incubator (5% CO2 at 37° C.) for varying periods of time (typically 4 hours), plates were centrifuged at room temperature, followed by removal of 20 μl supernatant fluid, After vibration of the plate to re-suspend cells, a dye mix (Plate in Monobromobimane, CALCEIN AM, MITOSOX™ and SYTOSOX™ RED; plate 1b VYBRANVIOLET™ Live Cell Cycle dye, JC-9, and SYTOSOX™ RED) was added in a total volume of 20 μl, followed by an additional mixing step.
as §1, with “Data” for “Each well of the 384 wellplate was sampled with a 6 second sip time, plus 1 second delay between wells, resulting in a total read time for each plate of approximately 45 minutes. Data”
Flow cytometric analyses of intrinsic cell properties (forward light scatter and light scattered orthogonal to the laser beam) and fluorescence signals derived from the dyes listed in Table 1 was carried out for plates 1a and 1b.
MITOSOX™ RED is a compound that can diffuse into viable cells and reacts with superoxide anion species, particularly products of mitochondrial respiration; conditions such as cell stress can cause mitochondria to respond (sometimes rapidly) by increasing respiration and/or release superoxide anions; and
(3) SYTOXRED™ to measure cell viability (loss of nuclear membrane integrity). SYTOXRED™ is a high-affinity DNA stain that can only pass through the cytoplasmic and nuclear membranes of cells which have lost the integrity of both membranes; thus, brightly fluorescent cells are dead.

[5] = HL-60 cells, increasing concentration
[6] = 33 μM, population with altered morphology, compared to cells with normal morphology
[7] = 33 μM, population with normal morphology
[8] = HL-60 cells, concentration series

For `CS(=O)(=O)N1CCN(Cc2cc3nc(-c4cccc5[nH]ncc45)nc(N4CCOCC4)c3s2)CC1` [GDC0941], which “kinetics of ERK phosphorylation” value [1] is on record?
Its value is “delayed”.

With `Cc1ccc(NC(=O)c2ccc(CN3CCN(C)CC3)cc2)cc1Nc1nccc(-c2cccnc2)n1` [GLEEVEC™] as the compound, how does the “change in the cell cycle, as measured by DNA content” value [2] read?
The value was “no concomitant change”.

What does the source list for `CC(=O)[C@]1(O)Cc2c(O)c3c(c(O)c2[C@@H](O[C@H]2C[C@H](N)[C@H](O)[C@H](C)O2)C1)C(=O)c1ccccc1C3=O` [idarubicin]?
JC-9 red fluorescence versus untreated control cells ([3]; HL60 cells, 1.23 μM): significantly higher; concentration at which red fluorescence of JC-9 begins to increase significantly ([3]; HL60 cells, concentration series): 1.23 µM; JC-9 green fluorescence [3, 5]: does not increase

For `N#CC(C#N)=NNc1ccc(OC(F)(F)F)cc1` [FCCP, carbonyl cyanide-4-(trifluoromethoxy)phenylhydrazone], which CALCEIN [4, 6] is on record?
The CALCEIN was “increased”.

And the GSH [4, 6]?
The GSH was “reduced”.

What about the ROS [4, 6] of the same compound?
The ROS was “increased”.

And the SYTOXRED [4, 6]?
Its SYTOXRED is “higher”.

What about the “CALCEIN AM level” value [4, 7] of the same compound?
The value was “normal”.

What about the GSH level [4, 7] of the same compound?
The GSH level was “normal”.

What about the “ROS (indicator of mitochondrial stress)” value [4, 7] of the same compound?
The value was “increased”.

What about the “nuclear and cytoplasmic membranes (SYTOX Red uptake)” value [4, 7] of the same compound?
The value was “intact”.

And the cell morphology ([4]; 33 μM, second distinct population (light blue))?
The cell morphology was “altered”.

With `CC(C)[C@@H]1NC(=O)[C@H](C)OC(=O)[C@@H](C(C)C)NC(=O)[C@@H](C(C)C)OC(=O)[C@H](C(C)C)NC(=O)[C@H](C)OC(=O)[C@@H](C(C)C)NC(=O)[C@@H](C(C)C)OC(=O)[C@H](C(C)C)NC(=O)[C@H](C)OC(=O)[C@@H](C(C)C)NC(=O)[C@@H](C(C)C)OC1=O` [valinomycin] as the compound, how does the “concentration at which red and green JC-9 fluorescence peak” value [3, 8] read?
Its value is about 0.045 µM.

And the “concentration of peak green JC-9 fluorescence” value [3, 8]?
Its value is about 0.05 µM.

What about the JC-9 green fluorescence [3, 5] of the same compound?
The JC-9 green fluorescence was “significantly higher; also recorded: initially increase”.

What about the JC-9 red fluorescence [3, 5] of the same compound?
Its JC-9 red fluorescence is “significantly higher; also recorded: initially increase”.

What about the “JC-9 red/green fluorescence ratio” value ([3]; at higher concentrations (above green peak)) of the same compound?
Its value is “increasing”.

For `CNCCC(Oc1ccc(C(F)(F)F)cc1)c1ccccc1` (stereo not shown) [fluoxetine], which “cells that have lost "normal morphology"” value ([4]; 100 μM) is on record?
The value was “Approximately 30%”.

What about the “GSH (MBBR)” value ([4]; 100 μM, affected cells) of the same compound?
Its value is “reduced”.

What about the “ROS (MITOSOX RED)” value ([4]; 100 μM, affected cells) of the same compound?
Its value is “increased”.

`CO/C(=C/C(N)=O)[C@H](C)[C@H](/C=C/c1csc(-c2csc([C@@H](C)/C=C/C=C/C(C)C)n2)n1)OC` [myxothiazol] was tested. Which “CALCEIN AM (cytoplasmic membrane permeability)” value ([4]; 100 μM, affected cells) did it give?
Its value is “decrease”.

What about the “GSH (MBBR)” value ([4]; 100 μM, affected cells) of the same compound?
The value was “decrease”.

What about the “ROS (MITOSOX RED)” value ([4]; 100 μM, affected cells) of the same compound?
The value was “increase”.

And the “SYTOXRED (cytoplasmic and nuclear membrane permeability, viability)” value ([4]; 100 μM, affected cells)?
Its value is “increase”.

And the “cell morphology (light scatter)” value ([4]; 100 μM, affected cells)?
Its value is “significant change”.

And the “SYTOXRED (cytoplasmic and nuclear membrane permeability, viability)” value ([4]; 100 μM, affected cells, listed as myxothiozol)?
Its value is “perturbs”.
